Experimental findings from US12227534B2, “Method for preparing nicotinamide mononucleotide by using nicotinamide as raw material” (BONTAC BIO-ENGINEERING(SHENZHEN) CO., LTD., priority 2020, dated 2025) are described below.

The nature of series [1]: Long-term stability of nicotinamide ribose solution after pH adjustment with sodium bicarbonate. The series is classed as physicochemical. The note with it: 2-4° C., storage time 45 days. From the text: (§1) The results of various parameters in the preparation of the intermediate product nicotinamide ribose solution are shown in Table 1 to Table 5.
Series [2] can be described thus: Long-term stability of nicotinamide ribose solution after pH adjustment with hydrochloric acid. It is filed as physicochemical. The note with it: storage temperature 0-4° C., storage time 45 days.
Source text: as §1

Regarding “nicotinamide ribose [nicotinamide ribose solution]”, the “Stability (degradation)” value is reported as 2.4% in series [1] (pH 4 (sodium bicarbonate)), 3.7% in series [1] (pH 5 (sodium bicarbonate)), 1.3% in series [2] (pH 4 (hydrochloric acid)) and 2.1% in series [2] (pH 5 (hydrochloric acid)).
